Assay results as given in patent US20150274664A1 (MERCK SHARP & DOHME CORP., priority 2012, published 2015).

Biological target: T1, human GPR119 (Homo sapiens, UniProt Q8TDV5)
T1 construct: expressed in transfected cells; host or cells: HEK293
T1 sequence (Q8TDV5 1-335): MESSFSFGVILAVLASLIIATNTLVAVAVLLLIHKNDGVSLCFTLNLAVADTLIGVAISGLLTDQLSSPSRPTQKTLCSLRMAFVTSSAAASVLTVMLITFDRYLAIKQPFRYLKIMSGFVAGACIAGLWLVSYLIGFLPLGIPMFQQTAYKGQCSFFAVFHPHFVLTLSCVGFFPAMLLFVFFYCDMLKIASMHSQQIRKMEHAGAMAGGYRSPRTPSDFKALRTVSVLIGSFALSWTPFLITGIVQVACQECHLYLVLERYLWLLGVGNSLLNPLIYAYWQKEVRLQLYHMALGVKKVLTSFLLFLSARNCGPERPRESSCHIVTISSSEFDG
Assay: Measurement of GPR119 signaling using LANCE 384-well cAMP kit (LCMP assay)
Assay type: cell-based
Settings: HEK293 cells stably transfected with human GPR119
Protocol: Measurement of GPR119 Signaling Using LANCE 384-Well cAMP Kit (LCMP Assay)
Human embryonic kidney (HEK) 293 cell lines stably transfected with human GPR119 were maintained in DMEM media containing FBS, penicillin-streptomycin, HEPES, and hygromycin. For the cAMP assay, the transfected cells were harvested using a non-enzymatic cell dissociation solution (GIBCO 2672), pelleted and resuspended in stimulation buffer (DMEM, 25 mM Hepes, 0.1% BSA, pH 7.4 in the presence of 100 μM phosphodiesterase inhibitors). The adenylate cyclase assay was constructed following the LANCE™ cAMP Kit (Perkin Elmer, AD0264) instructions. Briefly, cells with Alexa Fluor® 647-anti cAMP antibody were incubated with 10 point series diluted test article in stimulation buffer with a final concentration of 2.5% DMSO for 45 minutes. The reaction was stopped by incubating with the supplied detection buffer containing the europium chelate of the Eu-SA/Biotin-cAMP tracer for 3 hours. The assay was performed in duplicate in a 384 well plate for duplicate plates. Fluorescence at 665 nm was measured using a PHERAstar instrument. Basal activity was determined using a DMSO control and maximum response was defined as cAMP stimulation produced by an internal agonist control. Standard cAMP concentrations were assayed concurrently for conversion of fluorescence signal to cAMP level. The data was analyzed using 4-parameter curve fit in Microsoft Excel.

EC50	SMILES
5.9 nM	COCc1cnc(N2CCC([C@H]3C[C@@H]3CCOc3ccc(CC(=O)N(C)C)c(F)c3)CC2)nc1 [Example 53, 2-(2-fluoro-4-(2-((1R,2R)-2-(1-(5-(methoxymethyl)pyrimidin-2-yl)piperidin-4-yl)cyclopropyl)ethoxy)phenyl)-N,N-dimethylacetamide]
0.25 nM	CCc1cnc(N2CCC([C@H]3C[C@@H]3CCOc3cc(F)c(CC(=O)N4CCC4)c(F)c3)CC2)nc1 [Example 54, 1-(azetidin-1-yl)-2-(4-(2-((1R,2R)-2-(1-(5-ethylpyrimidin-2-yl)piperidin-4-yl)cyclopropyl)ethoxy)-2,6-difluorophenyl)ethanone]
0.34 nM	CCc1cnc(N2CCC([C@H]3C[C@@H]3CCOc3cc(F)c(CC(=O)N(C)C)c(F)c3)CC2)nc1 [Example 55, 2-(4-(2-((1R,2R)-2-(1-(5-ethylpyrimidin-2-yl)piperidin-4-yl)cyclopropyl)ethoxy)-2,6-difluorophenyl)-N,N-dimethylacetamide]
0.4 nM	COCc1cnc(N2CCC([C@H]3C[C@@H]3CCOc3cc(F)c(CC(=O)N4CCC4)c(F)c3)CC2)nc1 [Example 56, 1-(azetidin-1-yl)-2-(2,6-difluoro-4-(2-((1R,2R)-2-(1-(5-(methoxymethyl)pyrimidin-2-yl)piperidin-4-yl)cyclopropyl)ethoxy)phenyl)ethanone]
0.63 nM	COCc1cnc(N2CCC([C@H]3C[C@@H]3CCOc3cc(F)c(CC(=O)N(C)C)c(F)c3)CC2)nc1 [Example 57, 2-(2,6-difluoro-4-(2-((1R,2R)-2-(1-(5-(methoxymethyl)pyrimidin-2-yl)piperidin-4-yl)cyclopropyl)ethoxy)phenyl)-N,N-dimethylacetamide]
11 nM	Fc1cc(-n2cnnn2)ccc1OCC[C@H]1C[C@@H]1C1CCN(c2ncc(Cl)cn2)CC1 [Example 58, 5-chloro-2-(4-((1R,2R)-2-(2-(2-fluoro-4-(1H-tetrazol-1-yl)phenoxy)ethyl)cyclopropyl)piperidin-1-yl)pyrimidine]
13 nM	Fc1cc(OCC[C@@H]2C[C@H]2C2CCN(c3ncc(Cl)cn3)CC2)ccc1-n1cnnn1 [Example 59, 5-chloro-2-(4-((1S,2S)-2-(2-(3-fluoro-4-(1H-tetrazol-1-yl)phenoxy)ethyl)cyclopropyl)piperidin-1-yl)pyrimidine]
17 nM	CCc1cnc(N2CCC([C@H]3C[C@@H]3CCOc3ccc(-n4cnnn4)cc3F)CC2)nc1 [Example 60, 5-ethyl-2-(4-((1R,2R)-2-(2-(2-fluoro-4-(1H-tetrazol-1-yl)phenoxy)ethyl)cyclopropyl)piperidin-1-yl)pyrimidine]
17 nM	O=C1NCCN1c1ccc(OCC[C@H]2C[C@@H]2C2CCN(c3ncc(Cl)cn3)CC2)cc1F [Example 61, 1-(4-(2-((1R,2R)-2-(1-(5-chloropyrimidin-2-yl)piperidin-4-yl)cyclopropyl)ethoxy)-2-fluorophenyl)imidazolidin-2-one]
11 nM	CCc1cnc(N2CCC([C@@H]3C[C@H]3CCOc3ccc(CC(=O)N4CCC4)cc3F)CC2)nc1 [Example 62, 1-(azetidin-1-yl)-2-(4-(2-((1S,2S)-2-(1-(5-ethylpyrimidin-2-yl)piperidin-4-yl)cyclopropyl)ethoxy)-3-fluorophenyl)ethanone]
15 nM	COCc1cnc(N2CCC([C@H]3C[C@@H]3CCOc3ccc(CC(=O)N4CCC4)cc3F)CC2)nc1 [Example 63, 1-(azetidin-1-yl)-2-(3-fluoro-4-(2-((1R,2R)-2-(1-(5-(methoxymethyl)pyrimidin-2-yl)piperidin-4-yl)cyclopropyl)ethoxy)phenyl)ethanone]
7.7 nM	CC(C)c1noc(N2CCC([C@@H]3C[C@H]3CCOc3ccc(S(C)(=O)=O)c(F)c3)CC2)n1 [Example 65, 5-(4-((1S,2S)-2-(2-(3-fluoro-4-(methylsulfonyl)phenoxy)ethyl)cyclopropyl)piperidin-1-yl)-3-isopropyl-1,2,4-oxadiazole]
3.5 nM	CC(C)c1noc(N2CCC([C@@H]3C[C@H]3CCOc3ccc(S(C)(=O)=O)cc3F)CC2)n1 [Example 66, 5-(4-((1S,2S)-2-(2-(2-fluoro-4-(methylsulfonyl)phenoxy)ethyl)cyclopropyl)piperidin-1-yl)-3-isopropyl-1,2,4-oxadiazole]
6.2 nM	CC(C)c1noc(N2CCC([C@@H]3C[C@H]3CCOc3ccc(-n4cnnn4)cc3F)CC2)n1 [Example 67, 5-(4-((1S,2S)-2-(2-(2-fluoro-4-(1H-tetrazol-1-yl)phenoxy)ethyl)cyclopropyl)piperidin-1-yl)-3-isopropyl-1,2,4-oxadiazole]
3.5 nM	CC(C)c1noc(N2CCC([C@H]3C[C@@H]3CCOc3ccc(-n4cnnn4)cc3F)CC2)n1 [Example 68, 5-(4-((1R,2R)-2-(2-(2-fluoro-4-(1H-tetrazol-1-yl)phenoxy)ethyl)cyclopropyl)piperidin-1-yl)-3-isopropyl-1,2,4-oxadiazole]
2.2 nM	CC(C)c1noc(N2CCC([C@@H]3C[C@H]3CCOc3ccc(CC(=O)N4CCC4)c(F)c3)CC2)n1 [Example 69, 1-(azetidin-1-yl)-2-(2-fluoro-4-(2-((1S,2S)-2-(1-(3-isopropyl-1,2,4-oxadiazol-5-yl)piperidin-4-yl)cyclopropyl)ethoxy)phenyl)ethanone]
6.8 nM	CC(C)c1noc(N2CCC([C@@H]3C[C@H]3CCOc3ccc(CC(=O)N4CCC4)cc3F)CC2)n1 [Example 70, 1-(azetidin-1-yl)-2-(3-fluoro-4-(2-((1S,2S)-2-(1-(3-isopropyl-1,2,4-oxadiazol-5-yl)piperidin-4-yl)cyclopropyl)ethoxy)phenyl)ethanone]
3.8 nM	CCS(=O)(=O)c1ccc(OCC[C@@H]2C[C@H]2C2CCN(c3nc(C(C)C)no3)CC2)c(F)c1 [Example 71, 5-(4-((1S,2S)-2-(2-(4-(ethylsulfonyl)-2-fluorophenoxy)ethyl)cyclopropyl)piperidin-1-yl)-3-isopropyl-1,2,4-oxadiazole]
2.6 nM	CC(C)c1noc(N2CCC([C@H]3C[C@@H]3CCOc3ccc(CC(=O)N4CCC4)c(F)c3)CC2)n1 [Example 72, 1-(azetidin-1-yl)-2-(2-fluoro-4-(2-((1R,2R)-2-(1-(3-isopropyl-1,2,4-oxadiazol-5-yl)piperidin-4-yl)cyclopropyl)ethoxy)phenyl)ethanone]
6.4 nM	COCc1noc(N2CCC([C@H]3C[C@@H]3CCOc3ccc(CC(=O)N4CCC4)c(F)c3)CC2)n1 [Example 73, 1-(azetidin-1-yl)-2-(2-fluoro-4-(2-((1R,2R)-2-(1-(3-(methoxymethyl)-1,2,4-oxadiazol-5-yl)piperidin-4-yl)cyclopropyl)ethoxy)phenyl)ethanone]
9.5 nM	CC(C)c1noc(N2CCC([C@H]3C[C@@H]3CCOc3ccc(CC(=O)N4CCC4)cc3F)CC2)n1 [Example 74, 1-(azetidin-1-yl)-2-(3-fluoro-4-(2-((1R,2R)-2-(1-(3-isopropyl-1,2,4-oxadiazol-5-yl)piperidin-4-yl)cyclopropyl)ethoxy)phenyl)ethanone]
8.1 nM	CC(C)c1noc(N2CCC([C@H]3C[C@@H]3CCOc3ccc(CC(=O)N(C)C)c(F)c3)CC2)n1 [Example 75, 2-(2-fluoro-4-(2-((1R,2R)-2-(1-(3-isopropyl-1,2,4-oxadiazol-5-yl)piperidin-4-yl)cyclopropyl)ethoxy)phenyl)-N,N-dimethylacetamide]
6.3 nM	CC(C)c1noc(N2CCC([C@@H]3C[C@H]3CCOc3ccc(CC(=O)N(C)C)c(F)c3)CC2)n1 [Example 76, 2-(2-fluoro-4-(2-((1S,2S)-2-(1-(3-isopropyl-1,2,4-oxadiazol-5-yl)piperidin-4-yl)cyclopropyl)ethoxy)phenyl)-N,N-dimethylacetamide]
0.79 nM	CC(C)c1noc(N2CCC([C@@H]3C[C@H]3CCOc3cc(F)c(CC(=O)N(C)C)c(F)c3)CC2)n1 [Example 77, 2-(2,6-difluoro-4-(2-((1S,2S)-2-(1-(3-isopropyl-1,2,4-oxadiazol-5-yl)piperidin-4-yl)cyclopropyl)ethoxy)phenyl)-N,N-dimethylacetamide]
6.7 nM	COCc1noc(N2CCC([C@@H]3C[C@H]3CCOc3cc(F)c(CC(=O)N(C)C)c(F)c3)CC2)n1 [Example 78, 2-(2,6-difluoro-4-(2-((1S,2S)-2-(1-(3-(methoxymethyl)-1,2,4-oxadiazol-5-yl)piperidin-4-yl)cyclopropyl)ethoxy)phenyl)-N,N-dimethylacetamide]
0.55 nM	CC(C)c1noc(N2CCC([C@H]3C[C@@H]3CCOc3cc(F)c(CC(=O)N4CCC4)c(F)c3)CC2)n1 [Example 79, 1-(azetidin-1-yl)-2-(2,6-difluoro-4-(2-((1R,2R)-2-(1-(3-isopropyl-1,2,4-oxadiazol-5-yl)piperidin-4-yl)cyclopropyl)ethoxy)phenyl)ethanone]
